Consider eleven molecules from patent publication US11788086B2, “Antitumor compounds and tumor diagnosis” (CBMED GMBH CENTER FOR BIOMARKER RESEARCH IN MEDICINE, priority 2016, dated 2023).

Assay [1] concerns rectum cancer PDX models. As to the kind of experiment: Protein expression in rectum cancer PDX models under chemotherapeutic treatment. Conditions: not statistically significant. The format is in vivo, mice. On the procedure: (§1) Protein expression was analyzed in NP-40 tissue lysates. Therefore normalized protein amounts were loaded onto 8% or 12.5% polyacrylamide gels in consideration of the molecular mass of the protein of interest. Electrophoresis was performed for 1.5 h at 120 V in SDS Running Buffer with the Mini-vertical electrophoresis unit (Amersham Biosciences). Then separated proteins were transferred to PVDF-membranes (Immobilin-P Transfer Membran; Millipore) using a Semi Dry Blotting Unit (JH BioInnovations) at 160 mA for 1.5 hours. Membranes were blocked with 5% non-fat dried milk (AppliChem) in Tris-buffered saline-Tween (TBS-T; 0.2 M Tris, 1.4 M NaCl, pH 7.4, 0.1% Tween) for 1 h, followed by a primary antibody incubation (overnight at 4° C.) and an 1 h secondary antibody incubation (1:3000 dilution, GE Healthcare). All primary antibodies were diluted in 5% bovine serum albumin diluted in TBS-T. Between incubation steps membranes were washed 3 times in TBS-T for 10 min. Membranes were then developed with an enhanced chemiluminescence (ECL) Western blotting system (GE healthcare) using the ChemiImager™ System (Alpha Innotech). Immunoblots were evaluated semi-quantitative using ImageJ (Schneider C A, et al. Nat Meth. 9(2012):671-5) software for densitometric analyses. Relative densities were then calculated by normalizing density values for each protein to the loading control (Actin).
(§2) Samples of patients suffering from colon cancer or GBMs were transplanted into 3 to 6 immunodeficient NOD/SCID mice. The tumor growth was monitored in a daily rhythm. At a size of about 1 cm^3, the tumors were removed and transferred to naive NMRI:nu/nu mice for chemosensitivity testing. Xenotransplanted carcinomas and metastases were treated with different standard and novel chemotherapeutic drugs. During chemosensitivity testing the tumor volume was measured regularly and used to generate growth curves. After a time period of 30-40 days the tumors were excised and analyzed by Immunoblot and Real-Time-PCR. Chemosensitivity data were kindly provided by EPO Berlin-Buch GmbH. Tumor volume of treatment in comparison to control (T/C) was calculated in percent.
To analyze protein expression of different eIF subunits under chemotherapeutic treatment, 4 rectum primary carcinoma (RPC) PDX models and 2 rectum metastasis (RM) PDX model were generated.

Assay [2] deals with eIF protein expression. As to the kind of experiment: eIF protein expression after chemosensitivity testings in murine GBM xenograft models (immunoblot). The format is in vivo, mice. The settings on record: murine GBM xenografts; for eIF protein expression (eIF subunits overall): compared to PBS treated controls. On the procedure: as §1, §2
Additionally to single treatments with each compound, combination therapies for Temozolomide/Everolimus, Temozolomide/Regorafenib and Temozolomide/Thalidomide were investigated.

In assay [3] the test system is tumor cells. Conditions: eIF5A2 siRNA combined with GC7, HCC; cited from earlier work.
For assay [4], the system named is colon cancer PDX models. As to the kind of experiment: Protein expression in colon cancer patients derived xenograft (PDX) models under chemotherapeutic treatment. The format is in vivo, mice. The settings on record: not statistically significant. As to the method: Protein expression was analyzed in NP-40 tissue lysates. Therefore normalized protein amounts were loaded onto 8% or 12.5% polyacrylamide gels in consideration of the molecular mass of the protein of interest. Electrophoresis was performed for 1.5 h at 120 V in SDS Running Buffer with the Mini-vertical electrophoresis unit (Amersham Biosciences). Then separated proteins were transferred to PVDF-membranes (Immobilin-P Transfer Membran; Millipore) using a Semi Dry Blotting Unit (JH BioInnovations) at 160 mA for 1.5 hours. […] Immunoblots were evaluated semi-quantitative using ImageJ (Schneider C A, et al. Nat Meth. 9(2012):671-5) software for densitometric analyses. Relative densities were then calculated by normalizing density values for each protein to the loading control (Actin).
Samples of patients suffering from colon cancer or GBMs were transplanted into 3 to 6 immunodeficient NOD/SCID mice. The tumor growth was monitored in a daily rhythm. […] During chemosensitivity testing the tumor volume was measured regularly and used to generate growth curves. After a time period of 30-40 days the tumors were excised and analyzed by Immunoblot and Real-Time-PCR. […] Tumor volume of treatment in comparison to control (T/C) was calculated in percent.

For assay [5], the system named is hepatoma cell. Conditions: in vivo and in vitro; cited from earlier work.
[6] abbreviates: rectum metastasis (RM) PDX models.

Consider `O=c1[nH]cc(F)c(=O)[nH]1` [5-FU], for which the eIF3A protein expression result in assay [1] (setting [6]) is on record as “trend in downregulation”.

With `CO[C@H]1C[C@@H]2CC[C@@H](C)[C@@](O)(O2)C(=O)C(=O)N2CCCC[C@H]2C(=O)O[C@H]([C@H](C)C[C@@H]2CC[C@@H](OCCO)[C@H](OC)C2)CC(=O)[C@H](C)/C=C(\C)[C@@H](O)[C@@H](OC)C(=O)[C@H](C)C[C@H](C)/C=C/C=C/C=C/1C` [Everolimus], the “eIF protein expression (eIF subunits overall)” value (“eIF protein expression” below) in assay [2] is recorded as “almost no difference”. Moreover, the eIF3C protein expression result in assay [2] (vs PBS control) is “upregulated”.

For `NCCCCCCCN=C(N)N` [GC7], in assay [3], the “migration ability of tumor cells” value was “effectively reduces”.

For the molecule `CCc1c2c(nc3ccc(OC(=O)N4CCC(N5CCCCC5)CC4)cc13)-c1cc3c(c(=O)n1C2)COC(=O)[C@]3(O)CC` [Irinotecan], in assay [1] (setting [6]), the eIF3A protein expression entry is on record as “trend in downregulation”. Moreover, in assay [2], the “eIF protein expression” value is “differential effects”.

For `COC(=O)c1ccc2c(c1)NC(=O)/C2=C(\Nc1ccc(N(C)C(=O)CN2CCN(C)CC2)cc1)c1ccccc1` [Nintedanib], in assay [1] (setting [6]), the eIF3A protein expression result is “trend in downregulation” and the eIF3J protein expression entry is recorded as “tendency to be downregulated”.

With `O=C1[O][Pt]2([NH][C@@H]3CCCC[C@H]3[NH]2)[O]C1=O` [Oxaliplatin], the eIF4G protein expression entry in assay [1] (rectum primary carcinoma (RPC) PDX) is “increased”. Also, the mTOR protein expression result in assay [4] (colon primary carcinoma (CPC) PDX models, vs untreated control) was “trend to be upregulated”.

With `CNC(=O)c1cc(Oc2ccc(NC(=O)Nc3ccc(Cl)c(C(F)(F)F)c3)c(F)c2)ccn1` [Regorafenib], the eIF3A protein expression result in assay [1] (setting [6]) is “trend in downregulation”. Further, the “eIF protein expression” value in assay [2] is reported as “totally down-regulated”.

For `CC[C@@H](C(=O)[C@@H](C)[C@@H](O)[C@H](C)[C@@H]1O[C@@H]([C@@H](CC)C(=O)O)CC[C@@H]1C)[C@H]1O[C@]2(C=C[C@@H](O)[C@]3(CC[C@@](C)([C@H]4CC[C@](O)(CC)[C@H](C)O4)O3)O2)[C@H](C)C[C@@H]1C` [Salinomycin], the “eIF protein expression” value in assay [2] is “almost no difference”. Moreover, in assay [2] (vs PBS control), the eIF3C protein expression entry was “upregulated”.

`CNC(=O)c1cc(Oc2ccc(NC(=O)Nc3ccc(Cl)c(C(F)(F)F)c3)cc2)ccn1` [Sorafenib]: in assay [5], the Mcl-1 protein result is recorded as “reduce”, the “RAF/MEK/ERK signaling transduction pathway” value is “inhibit”, the eIF4E phosphorylation level entry is recorded as “reduce” and the hepatoma cell apoptosis result is listed as “induce”. For the same molecule, the “eIF protein expression” value in assay [2] is “almost no difference”. The eIF3C protein expression entry in assay [2] (vs PBS control) was “upregulated”.

On to `O=C1CCC(N2C(=O)c3ccccc3C2=O)C(=O)N1` (stereo not shown) [Thalidomide], for which the “eIF protein expression” value in assay [2] is “almost no difference”. Moreover, in assay [2] (vs PBS control), the eIF3C protein expression entry is “upregulated”.

For the molecule “Bevacizumab: Anti-VEGF monoclonal antibody (angiogenesis inhibitor)”, the eIF3A protein expression result in assay [1] (setting [6]) is “trend in downregulation”. For the same molecule, the PTEN protein expression entry in assay [4] (CM PDX model) is recorded as “seemed to be decreased”. Besides, in assay [2] (vs PBS control), the eIF3K protein expression entry is “down-regulation”.
